# Laboratory results taken from patent EP4640672A1, “ETHYLENEDIAMINE DERIVATIVE, AND PREPARATION METHOD THEREFOR AND USE THEREOF” (Jiangsu Protelight Pharmaceutical & Biotechnology Co., Ltd., priority 2022, dated 2024).
# pIC50: −log10 of the molar value.
# Assays:
# [1] = system: Lung cancer A549; assay: in vitro anti-tumor activity assay (MTT method); format: cell-based, human; conditions: Lung cancer A549, culture medium F12, 48 h of culture
# Method: (§1) Five human tumor cell lines were selected and cultured in RPMI-1640 (Gibco) or DMEM (Gibco) or GMEM/F12 medium (Gibco) containing 10% inactivated fetal bovine serum, 100 U/ml penicillin and […] streptomycin in an incubator containing 5% CO2 at 37°C. Logarithmically growing cells were seeded in 96-well plates (100 µl per well, 2 x 10^4 cells) using the MTT method, while setting blank control wells. After overnight incubation in the incubator, 100 µl of drug (final concentration 25 µM diluted to 0.39 µM, a total of 7 groups of drug concentrations) was added, an equal volume of culture medium was added in the blank control wells, and 3 duplicate wells were set for each drug concentration. After 48 h of culture, the supernatant was discarded. After washing twice with PBS, 100 µl of MTT (5mg/ml) was added to each well, and the culture was continued for 2 h. Absorbance (A492nm) was measured by a microplate reader to calculate the inhibition rate of the drug on tumor cells.
# (§2) IC50 values of compounds on tumor cells were calculated using GraphPad software. […] Table 2. In vitro anti-tumor activity IC50 (µM) of example compounds
# [2] = system: Prostate cancer LNcap; assay: in vitro anti-tumor activity assay (MTT method); format: cell-based, human; conditions: culture medium RPMI-1640, 48 h of culture
# Method: as §1, §2
# [3] = system: Prostate cancer PC-3; assay: in vitro anti-tumor activity assay (MTT method); format: cell-based, human; conditions: Prostate cancer PC-3, culture medium F12, 48 h of culture
# Method: as §1, §2
# [4] = system: Lung cancer H460; assay: in vitro anti-tumor activity assay (MTT method); format: cell-based, human; conditions: 48 h of culture
# Method: as §1, §2
# [5] = system: Liver cancer HepG2; assay: in vitro anti-tumor activity assay (MTT method); format: cell-based, human; conditions: Liver cancer HepG2, culture medium High-sugar DMEM, 48 h of culture
# Method: as §1, §2
# [6] = system: A549 lung cancer cells; assay: in vivo anti-tumor efficacy assay, subcutaneous tumor model; conditions: BALB/c nude mice, intraperitoneally 20 mg/kg once per two days, 10 times; for Tumor inhibition rate: calculated from tumor weight; for Mean tumor weight (g) (mean ± SD): weighed on 2nd day after last administration
# Method: An in vivo efficacy evaluation model was established in BALB/c nude mice. Each mouse was inoculated subcutaneously with 0.15 mL of tumor cell suspension (A549 lung cancer cells, 2 x 10^7 cells/ml) in the axillary fossa of the right forelimb. When the inoculated cells grew to 300 mm^3, the administration was started. On the 22nd day after inoculation, the mice were intraperitoneally administered (20 mg/kg) once per two days for a total of 10 times. On the 2nd day after the last administration, all the tumor-bearing mice were sacrificed, the tumors were weighed and the tumor inhibition rate was calculated. […] Table 3 Results of in vivo anti-tumor activity of the example compounds
# [7] = Homo sapiens, NCI-H460, Lung cancer H460, culture medium High-sugar DMEM
Structure (SMILES),pIC50 ([1]; Homo sapiens),pIC50 ([2]; Homo sapiens),pIC50 ([3]; Homo sapiens),"pIC50 [4, 7]",pIC50 ([5]; Homo sapiens),Tumor inhibition rate [6] [%],Mean tumor weight (g) (mean ± SD) [6],pIC50 [1],pIC50 [2],pIC50 [3],"pIC50 ([4]; Lung cancer H460, culture medium High-sugar DMEM)",pIC50 [5]
"CC(=O)O[C@@]12CO[C@@H]1C[C@H](O)[C@@]1(C)C(=O)[C@H](O)C3=C(C)[C@@H](OC(=O)[C@H](O)[C@@H](NC(=O)OC(C)(C)C)c4ccccc4)C[C@@](O)([C@@H](OC(=O)c4ccccc4)[C@H]21)C3(C)C [Docetaxol, docetaxel]",,,,,,5.29,0.631 ± 0.231,,,,,
"N.N.[Cl][Pt][Cl] [Cisplati num, Cisplatinum]",,,,,,,,4.47,4.94,4.16,4.69,4.51
COc1ccc2cc(C(C)C(=O)NC(Cc3ccc(-c4ccccc4)cc3)C(=O)NC3CC(C)(C)NC(C)(C)C3)ccc2c1 (stereo not drawn) [PL-AC-202],5.52,5.49,5.78,5.78,6.37,19.37,0.537 ± 0.198,,,,,
"CC1(C)CC(NC[C@H](Cc2ccc(OCc3c(Cl)cccc3Cl)cc2)NC(=O)C/C=C/c2ccccc2)CC(C)(C)N1 [Cpd001, (S,E)-N-(1-(4-((2,6-dichlor obenzyl)oxy)phenyl)-3-((2,2,6,6-tetramethylpiperidin-4-yl)amino)propan-2-yl)-4-phenylbut-3-enamide]",5.57,5.42,5.52,6.00,6.01,,,,,,,
CC1(C)CC(NC(=O)C(Cc2ccc(-c3ccccc3)cc2)NC(=O)c2cc3ccccc3n2Cc2ccccc2)CC(C)(C)N1 (stereo not drawn) [PL-AC-15],5.36,5.72,5.37,5.63,5.72,,,,,,,

# Continued by rising pIC50 ([1]; Homo sapiens), values first:
pIC50 ([1]; Homo sapiens),pIC50 ([2]; Homo sapiens),pIC50 ([3]; Homo sapiens),"pIC50 [4, 7]",pIC50 ([5]; Homo sapiens),Structure (SMILES),Tumor inhibition rate [6] [%],Mean tumor weight (g) (mean ± SD) [6],pIC50 [1],pIC50 [2],pIC50 [3],"pIC50 ([4]; Lung cancer H460, culture medium High-sugar DMEM)",pIC50 [5]
5.63,5.99,5.48,5.80,5.96,"CC1(C)CC(NC[C@H](Cc2ccc(-c3ccccc3)cc2)NC(=O)C=Cc2ccccc2)CC(C)(C)N1 (stereo in doubt) [Cpd014, (S)-N-(1-([1,1'-biphenyl]-4-yl)-3-((2,2,6,6-tetramethylpiperidin-4-yl)amino)propan-2-yl)cinnamamide]",32.73,0.448 ± 0.128,,,,,
5.71,5.82,5.43,5.65,5.83,"CCC(C(=O)N[C@H](CNC1CC(C)(C)NC(C)(C)C1)Cc1ccc(-c2ccccc2)cc1)C1CCCCC1 (stereo partly drawn) [Cpd009, N-((S)-1-([1,1'-biphenyl]-4-yl)-3-((2,2,6,6-tetramethylpiperidin-4-yl)amino)propan-2-yl)-2-cyclohexylbutanamide]",,,,,,,
